For test [1], the target named is T1, Inositol phosphorylceramide synthase (Candida albicans (strain SC5314 / ATCC MYA-2876) (Yeast), UniProt O13332).
T1 sequence (O13332 whole entry): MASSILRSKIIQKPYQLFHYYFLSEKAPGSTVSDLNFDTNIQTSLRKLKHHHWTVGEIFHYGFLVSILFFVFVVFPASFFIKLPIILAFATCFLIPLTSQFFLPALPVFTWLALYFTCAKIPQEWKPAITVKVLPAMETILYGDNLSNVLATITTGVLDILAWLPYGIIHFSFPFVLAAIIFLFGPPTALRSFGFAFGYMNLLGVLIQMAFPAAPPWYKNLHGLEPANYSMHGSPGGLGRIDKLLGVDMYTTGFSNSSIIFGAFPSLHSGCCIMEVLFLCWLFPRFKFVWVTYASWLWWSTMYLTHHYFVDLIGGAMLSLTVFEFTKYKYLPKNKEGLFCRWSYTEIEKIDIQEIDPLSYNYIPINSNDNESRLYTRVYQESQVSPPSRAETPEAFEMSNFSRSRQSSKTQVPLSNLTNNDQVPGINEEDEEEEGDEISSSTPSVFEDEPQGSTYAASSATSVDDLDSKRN
Description: (§1) Inhibition of Candida albicans ATCC 38247 inositol phosphorylceramide synthase preincubated for 30 mins

In test [2] the target is T2, Inositol phosphorylceramide synthase (Candida albicans (strain SC5314 / ATCC MYA-2876) (Yeast)) (UniProt O13332).
T2 sequence (whole entry): T1 sequence (O13332 whole entry)
Kind of test: Inhibition of Candida albicans ATCC 38247 inositol phosphorylceramide synthase. The conditions noted are these: TDE = time-dependent effect.

The target of test [3] is T1, Inositol phosphorylceramide synthase. Kind of test: Inhibition of Candida albicans inositol phosphorylceramide synthase.
The target of test [4] is Inositol phosphorylceramide synthase catalytic subunit AUR1 (Saccharomyces cerevisiae S288c, UniProt P36107). Put plainly: Inhibition of aureobasidin A-resistant Saccharomyces cerevisiae inositol phosphorylceramide synthase preincubated for 30 mins.
In test [5] the target is T3, Aureobasidin-resistance protein (Neosartorya fumigata (Aspergillus fumigatus), UniProt Q9Y745).
T3 sequence (Q9Y745 whole entry): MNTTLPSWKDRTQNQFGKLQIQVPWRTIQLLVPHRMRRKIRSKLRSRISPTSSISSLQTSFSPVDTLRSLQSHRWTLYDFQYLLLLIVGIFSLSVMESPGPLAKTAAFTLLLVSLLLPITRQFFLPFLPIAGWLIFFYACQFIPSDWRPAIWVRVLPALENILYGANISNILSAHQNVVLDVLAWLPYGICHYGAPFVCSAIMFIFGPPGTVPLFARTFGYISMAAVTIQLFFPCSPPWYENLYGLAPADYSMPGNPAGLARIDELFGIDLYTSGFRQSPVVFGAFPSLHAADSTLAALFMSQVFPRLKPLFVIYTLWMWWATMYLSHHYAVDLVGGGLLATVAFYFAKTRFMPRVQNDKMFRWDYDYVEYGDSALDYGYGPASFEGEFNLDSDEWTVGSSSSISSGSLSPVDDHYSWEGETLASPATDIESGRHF
Kind of test: Inhibition of Aspergillus fumigatus inositol phosphorylceramide synthase.

Test [6] addresses T4, Inositol phosphorylceramide synthase catalytic subunit AUR1 (Saccharomyces cerevisiae S288c, UniProt P36107).
T4 sequence (P36107 whole entry): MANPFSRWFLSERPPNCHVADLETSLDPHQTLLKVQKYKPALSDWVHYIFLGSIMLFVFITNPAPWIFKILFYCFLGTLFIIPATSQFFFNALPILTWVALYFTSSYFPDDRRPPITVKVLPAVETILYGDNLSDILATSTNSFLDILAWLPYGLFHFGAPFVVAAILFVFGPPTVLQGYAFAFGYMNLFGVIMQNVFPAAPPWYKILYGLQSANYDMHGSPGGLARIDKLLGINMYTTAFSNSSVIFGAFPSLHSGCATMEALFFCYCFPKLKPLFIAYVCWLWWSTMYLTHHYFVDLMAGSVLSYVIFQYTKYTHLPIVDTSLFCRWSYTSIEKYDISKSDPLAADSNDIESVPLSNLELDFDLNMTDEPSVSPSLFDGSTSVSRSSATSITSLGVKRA
Kind of test: Inhibition of Saccharomyces cerevisiae SJ21R inositol phosphorylceramide synthase preincubated for 30 mins.

Test [7] deals with T2, Inositol phosphorylceramide synthase (Candida albicans (strain SC5314 / ATCC MYA-2876) (Yeast)). Put plainly: Irreversible inhibition of Candida albicans ATCC 38247 inositol phosphorylceramide synthase.
Test [8] deals with T4, Inositol phosphorylceramide synthase catalytic subunit AUR1. Put plainly: Inhibition of Saccharomyces cerevisiae inositol phosphorylceramide synthase.
The target of test [9] is T2, Inositol phosphorylceramide synthase (Candida albicans (strain SC5314 / ATCC MYA-2876) (Yeast)). The conditions noted are these: ATCC 38247.
Description: as §1
The target in test [10] is T4, Inositol phosphorylceramide synthase catalytic subunit AUR1. Kind of test: Reversible inhibition of Saccharomyces cerevisiae inositol phosphorylceramide synthase.
Test [11] deals with T1, Inositol phosphorylceramide synthase. Kind of test: Reversible inhibition of Candida albicans inositol phosphorylceramide synthase.

“And” between values parts separate entries of the source, which are not always exact repeats. Identical values can stand only once. The source made the active and inactive calls. No cut-off for these calls is given here. Numbered stars: 1 amine (or outer) side, 2 acyl side, 3 side chain; on linkers, the order of the positions; unused ones are H or OH. Square brackets hold non-standard residues; d marks the D form. Peptide text beside a SMILES is read from it. X1 = CC[C@@H](C)[C@@H](O[*:1])C(=O)[*:2]; NMeVal(β-OH) = CN[C@H](C(=O)O)C(C)(C)O; NMeF = CN[C@@H](Cc1ccccc1)C(=O)O; aIle = CC[C@@H](C)[C@H](N)C(=O)O; NMeV = CN[C@H](C(=O)O)C(C)C

Turning to `CCCCCCCCC(=O)N(C)C(C(=O)O[C@@H](C(=O)N(C)CCc1ccc(OC)c(OC)c1)c1ccccc1)C(C)(C)O` (stereo partly drawn), affinity in test [1] was put at a Ki of 11800 nM.

Consider `COc1ccc(CCN(C)C(=O)[C@H](OC(=O)C(N(C)C(=O)CCCCCc2ccccc2)C(C)(C)O)c2ccccc2)cc1OC` (stereo partly drawn), for which, in [1], the affinity corresponds to a Ki of 10500 nM.

In turn, `CCCC(CCC)C(=O)N(C)C(C(=O)O[C@@H](C(=O)N(C)CCc1ccc(OC)c(OC)c1)c1ccccc1)C(C)(C)O` (stereo partly drawn) yielded a Ki in test [1] of 7900 nM.

On to `CC[C@@H](C)[C@@H]1NC(=O)[C@@H]2CCCN2C(=O)[C@H](Cc2ccccc2)N(C)C(=O)[C@H](Cc2ccccc2)NC(=O)[C@H](C(C)C)N(C)C(=O)[C@@H]([C@H](C)CC)OC(=O)[C@H](C(C)(C)O)N(C)C(=O)[C@H](CC(C)C)NC(=O)[C@H](C(C)C)N(C)C1=O` [AUREOBASIDIN A] (cyclo(F[NMeF]P[aIle][NMeV]L[NMeVal(β-OH)][X1][NMeV])), for which the inhibition entry in [2] was “tde”. Also, the IC50 in [3], in test [5] and in [8] was 0.2 nM throughout. For the same molecule, the inhibition constant Ki in test [3] came to 0.55 nM; in [4], 1400 nM; in [1], 0.18 nM; in test [6], 0.23 nM. Moreover, the inhibition result in [7] was “Active”. For the same molecule, the Kinact in test [9] is 2.5 /us and 1.8 /us.

In the case of `CCCCCCCCCC[C@H](C)[C@@H](O)[C@@H](C)/C=C(C)/C=C(\C)C(=O)[C@H](C)/C=C(\C)C(=O)O[C@H](CO)[C@@H](O)[C@H](O)C(=O)O` [KHAFREFUNGIN], the inhibition result in [2] was “tde”. Also, the IC50 is 0.6 nM in [3], 11300 nM in [4] and 43 nM in test [6]. The molecule also gave a Ki in test [1] of 0.43 nM.

Regarding `C=C1/C=C(\C)[C@H](CC)CC(=O)[C@H](C)C(=O)[C@@](O)(CO)C/C(OC)=C/[C@@H](C)C1` [RUSTMICIN], the 50% inhibitory concentration (IC50) stood at 3.8 nM in test [10], 27200 nM in test [4], 3.8 nM in test [11] and 13 nM in test [6]. The molecule also showed a Ki in test [1] of 16 nM.

These data come from ChEMBL document CHEMBL1629630, “Inhibition of inositol phosphorylceramide synthase by the cyclic peptide aureobasidin A” (Antimicrob Agents Chemother, 2009).
